Results on one compound are retold here after publication PMC10605449 (Biosensors, 2023).

Holding throughout (assay type): binding
One test has as its target T1, NUAK2(1-628) (Homo sapiens, UniProt Q9H093).
T1 construct: GST-NUAK2(1-628) was purchased from Carna Biosciences, Inc (Kobe, Japan); purchased Carna Biosciences, Inc (Kobe, Japan)
T1 sequence (Q9H093 1-628): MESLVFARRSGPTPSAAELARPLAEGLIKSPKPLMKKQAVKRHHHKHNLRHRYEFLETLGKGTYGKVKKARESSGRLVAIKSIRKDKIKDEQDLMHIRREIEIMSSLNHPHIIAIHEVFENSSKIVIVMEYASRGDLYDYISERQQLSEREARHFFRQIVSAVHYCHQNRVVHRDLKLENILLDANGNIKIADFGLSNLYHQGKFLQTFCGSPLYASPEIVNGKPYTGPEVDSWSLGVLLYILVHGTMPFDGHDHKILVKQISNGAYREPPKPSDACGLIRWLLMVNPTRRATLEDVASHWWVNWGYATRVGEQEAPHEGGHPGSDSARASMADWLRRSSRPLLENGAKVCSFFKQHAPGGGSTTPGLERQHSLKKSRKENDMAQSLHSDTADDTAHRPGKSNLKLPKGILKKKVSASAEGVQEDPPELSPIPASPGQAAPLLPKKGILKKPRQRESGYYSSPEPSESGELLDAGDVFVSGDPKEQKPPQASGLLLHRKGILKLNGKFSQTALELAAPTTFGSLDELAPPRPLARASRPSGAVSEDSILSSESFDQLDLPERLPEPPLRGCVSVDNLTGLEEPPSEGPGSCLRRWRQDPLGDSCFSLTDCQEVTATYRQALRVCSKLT
The experiment in a line: SPR, pure GST-NUAK2(1-628) immobilized by amine coupling, GSK461364A injected. Conditions: pure NUAK2(1-628); 15 °C. As to the method: (§1) The interaction analysis cycles consisted of 140 s of sample injection followed by 350 to 600 s of running buffer flow. The running buffer was composed of 20 mM HEPES pH 7.4, 100 mM NaCl, 5 mM MgCl2, 1 mM EGTA, 1 mM DTT, 0.05% Tween-20, and 2% DMSO, and the experiment was performed at 15 °C.
(§2) All sensorgrams were processed by first subtracting the binding response recorded from the control surface (reference spot, where only the avidin protein is immobilized), followed by subtraction of the buffer blank injection from the reaction spot. All datasets were fitted to a simple 1:1 Langmuir interaction model to determine the kinetic rate constants, and the interaction affinity was additionally calculated at a steady state when applicable. In cases where small molecules were present during the assay, a DMSO solvent correction (1–3%) was applied to account for variations in bulk signal and to achieve high-quality data. The experiments with immobilized purified proteins were performed on a Biacore 4000 (Cytiva, Uppsala, Sweden), and the interaction was evaluated using the provided Biacore 4000 evaluation software, while the experiments with soluble cell lysates on a Biacore T200 (Cytiva, Uppsala, Sweden) used the provided Biacore T200 evaluation software. All SPR experiments were performed in duplicate.

In the next test the target is T2, MARK3(48-370) (Homo sapiens, UniProt P27448).
T2 construct: The purified His6-TEV-MARK3(48-370) was immobilized using the same approach as GST-NUAK2(1-628); HRV3C site (C, cleaved yes); AviTag (C, cleaved yes); made in house
T2 sequence (P27448 48-370): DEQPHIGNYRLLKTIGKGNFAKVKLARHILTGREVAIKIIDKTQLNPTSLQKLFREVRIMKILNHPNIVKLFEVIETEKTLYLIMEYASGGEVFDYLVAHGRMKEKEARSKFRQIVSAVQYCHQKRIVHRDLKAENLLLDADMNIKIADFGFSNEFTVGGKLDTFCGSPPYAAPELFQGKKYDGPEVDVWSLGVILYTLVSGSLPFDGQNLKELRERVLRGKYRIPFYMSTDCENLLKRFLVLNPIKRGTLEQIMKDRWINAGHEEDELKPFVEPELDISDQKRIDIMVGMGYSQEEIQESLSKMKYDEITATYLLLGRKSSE
The experiment in a line: SPR, pure MARK3(48-370) WT immobilized by amine coupling, GSK461364A injected. As for the experimental part:
as §1, §2
A general note: Surface plasmon resonance follows binding to a sensor surface in real time, without labels.

The target of another test is T3, MARK3(48-370) Mutant 5 (Homo sapiens, UniProt P27448, A68G/E139D/F199L/F67Y/G137R/I62L/L128I/L130I/N66T/T204H/V116I/V205Q).
T3 construct: made in house; host or cells: E. coli Rosetta 2, co-expressed with BirA; soluble lysate used without purification
T3 sequence (P27448 48-370 I62L/N66T/F67Y/A68G/V116I/L128I/L130I/G137R/E139D/F199L/T204H/V205Q): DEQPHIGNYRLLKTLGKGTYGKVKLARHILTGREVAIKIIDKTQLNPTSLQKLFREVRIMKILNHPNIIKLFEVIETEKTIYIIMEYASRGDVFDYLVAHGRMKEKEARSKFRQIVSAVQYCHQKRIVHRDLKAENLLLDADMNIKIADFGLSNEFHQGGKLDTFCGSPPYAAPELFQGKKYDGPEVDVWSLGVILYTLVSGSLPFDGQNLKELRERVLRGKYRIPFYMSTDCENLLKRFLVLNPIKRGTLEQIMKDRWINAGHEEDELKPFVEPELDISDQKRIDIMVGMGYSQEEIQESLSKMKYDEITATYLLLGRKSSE
The experiment in a line: SPR Extract2Chip, cellular biotinylated MARK3 Mutant 5, GSK461364A injected. The settings on record: 15 °C. As to the method:
(§3) The cellular biotinylation of MARK3(48-370) kinase domain mutants followed the same approach as described for CypD. The 6 different mutants were expressed in Rosetta^TM 2 in PB media, and induced with 100 µM IPTG overnight at 18 °C.
(§4) The cellular biotinylated MARK3 NUAK2-like mutants were immobilized using the approach described in Section 2.5.2. The soluble cell lysates were diluted to a final concentration of 200 µg/mL, then injected over the neutravidin surfaces for 200 or 1400 s in order to reach 1000 to 2300 RU.
as §1
(§5) All sensorgrams were processed by first subtracting the binding response recorded from the control surface (reference spot, where only the avidin protein is immobilized), followed by subtraction of the buffer blank injection from the reaction spot. All datasets were fitted to a simple 1:1 Langmuir interaction model to determine the kinetic rate constants, and the interaction affinity was additionally calculated at a steady state when applicable. […]

The next test addresses T4, MARK3(48-370) Mutant 6 (Homo sapiens, UniProt P27448, A68G/E139D/F199L/F67Y/G137R/I62L/L128I/L130I/L72K/N66T/T204H/V116I/V205Q).
T4 construct: made in house; host or cells: E. coli Rosetta 2, co-expressed with BirA; soluble lysate used without purification
T4 sequence (P27448 48-370 I62L/N66T/F67Y/A68G/L72K/V116I/L128I/L130I/G137R/E139D/F199L/T204H/V205Q): T3 sequence (P27448 48-370 I62L/N66T/F67Y/A68G/V116I/L128I/L130I/G137R/E139D/F199L/T204H/V205Q) with L25K
The experiment in a line: SPR Extract2Chip, cellular biotinylated MARK3 Mutant 6, GSK461364A injected. The settings on record: 15 °C. As to the method:
as §3, §4, §1, §5

Positions count from the first letter of the chain named.

For `C[C@@H](Oc1cc(-n2cnc3ccc(CN4CCN(C)CC4)cc32)sc1C(N)=O)c1ccccc1C(F)(F)F` [GSK461364A], the “kd ± SD” value was 0.031 ± 0.017 s⁻¹ at NUAK2(1-628), 0.035 ± 0.012 s⁻¹ on MARK3(48-370) Mutant 5 and 0.021 ± 0.0012 s⁻¹ on MARK3(48-370) Mutant 6. Further, the “Binding behavior” value at MARK3(48-370) is “transient binding behavior”.
